Test systems include NCI/ADR-RES ovarian; HCC-2998 colon; ACHN renal; HCT-15 colon; OVCAR-8 ovarian; HT29 colon; T-47D breast; IGROV1 ovarian; NCI-H522 lung; RPMI-8226 leukemia.
What all share (assay): NCI anticancer screen, dose series, 48 h

Values joined by “and” are separate entries in the source; they are usually repeats but may differ in a detail not shown here. Equal values may be shown once.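 Method: 48-hour compound exposure of cells in 96-well plates, five concentrations, linear interpolation of endpoints. GI50: concentration for 50% inhibition of growth. TGI: concentration producing complete growth inhibition.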

In the case of `Cc1c2cnccc2c(C)c2c1c1cc(C3OCCCO3)ccc1n2C`, the GI50 is 157 nM with NCI/ADR-RES ovarian; 659 nM with HCC-2998 colon; 318 nM in the assay with ACHN renal; 281 nM with HCT-15 colon; 139 nM with OVCAR-8 ovarian; 363 nM with HT29 colon. The GI50 in the assay with T-47D breast is 299 nM; with IGROV1 ovarian, 337 nM; with NCI-H522 lung, 466 nM; in the assay on RPMI-8226 leukemia, 282 nM. Moreover, the TGI in the assay with NCI/ADR-RES ovarian worked out at 1830 nM; with HCC-2998 colon, 2940 nM; in the assay with ACHN renal it was 2040 nM; in the assay on HCT-15 colon it was 1400 nM; in the assay with OVCAR-8 ovarian, 1950 nM; in the assay with HT29 colon it was 2120 nM. Moreover, the TGI in the assay on T-47D breast turned out to be 3160 nM; in the assay with IGROV1 ovarian, 2370 nM; in the assay on NCI-H522 lung, 2480 nM; with RPMI-8226 leukemia it was 1280 nM.
With `CN(C)CCCOc1ccccc1NC1=C(Cl)C(=O)C(Nc2ccccc2OCCCN(C)C)=C(Cl)C1=O`, the GI50 in the assay with NCI/ADR-RES ovarian was 3290 nM; with HCC-2998 colon, 604 nM; with ACHN renal, 941 nM; with HCT-15 colon, 749 nM; in the assay on OVCAR-8 ovarian it was 301 nM; in the assay on HT29 colon, 253 nM. Further, the GI50 with T-47D breast was 209 nM; in the assay on IGROV1 ovarian, 355 nM; in the assay on NCI-H522 lung, 170 nM; in the assay on RPMI-8226 leukemia, 2010 nM. In addition, the TGI in the assay on NCI/ADR-RES ovarian came to 12700 nM; with HCC-2998 colon, 1310 nM; in the assay with ACHN renal it was 2130 nM; in the assay on HCT-15 colon, 2180 nM; in the assay on OVCAR-8 ovarian, 900 nM; in the assay with HT29 colon, 584 nM. Further, the TGI worked out at 591 nM with T-47D breast, 969 nM in the assay on IGROV1 ovarian, 383 nM in the assay with NCI-H522 lung and 5070 nM in the assay on RPMI-8226 leukemia.
For `CNC(=O)c1cc(COc2nnc(Nc3ccc(Cl)cc3)c3ccoc23)ccn1`, the GI50 is 4480 nM and > 10000 nM with NCI/ADR-RES ovarian; 17000 nM and > 10000 nM with HCC-2998 colon; 3860 nM and 7180 nM in the assay with ACHN renal; 12600 nM and > 10000 nM in the assay on HCT-15 colon; 3660 nM and 5780 nM in the assay on OVCAR-8 ovarian; 9450 nM and > 10000 nM in the assay with HT29 colon. For the same compound, the GI50 is 2870 nM and 5770 nM with T-47D breast; 11400 nM and > 10000 nM with IGROV1 ovarian; 2850 nM and 8830 nM in the assay with NCI-H522 lung; 19400 nM and > 10000 nM in the assay with RPMI-8226 leukemia. The TGI was greater than 42500 nM in the assay on NCI/ADR-RES ovarian; 52700 nM and > 10000 nM with HCC-2998 colon; 15400 nM and > 10000 nM in the assay on ACHN renal; 52400 nM and > 10000 nM in the assay on HCT-15 colon; 17100 nM and > 10000 nM with OVCAR-8 ovarian; 31200 nM and > 10000 nM with HT29 colon. In addition, the TGI in the assay with T-47D breast was 12500 nM and > 10000 nM; with IGROV1 ovarian, 27400 nM and > 10000 nM; in the assay with NCI-H522 lung, 11900 nM and > 10000 nM; in the assay on RPMI-8226 leukemia, greater than 82700 nM.
Consider `COC1=CC(c2ccc[nH]2)=N/C1=C\c1[nH]c(C)c(C(=O)OCc2ccccc2)c1C`, for which the GI50 in the assay on NCI/ADR-RES ovarian is 71.4 nM; in the assay with HCC-2998 colon, 87 nM; in the assay on ACHN renal it was 81 nM; with HCT-15 colon it was 33.3 nM; in the assay with OVCAR-8 ovarian it was 110 nM; in the assay on HT29 colon it was 35.9 nM. The GI50 in the assay with T-47D breast was 252 nM; in the assay with IGROV1 ovarian, 286 nM; in the assay on NCI-H522 lung, 96.8 nM; in the assay with RPMI-8226 leukemia it was 116 nM. Also, the TGI turned out to be 1360 nM with NCI/ADR-RES ovarian; 1710 nM with HCC-2998 colon; 1150 nM in the assay on ACHN renal; 1090 nM in the assay on HCT-15 colon; 1750 nM with OVCAR-8 ovarian; 1270 nM in the assay on HT29 colon. The TGI was determined as 1600 nM in the assay with T-47D breast, 9000 nM in the assay on IGROV1 ovarian, 1150 nM with NCI-H522 lung and 1800 nM in the assay on RPMI-8226 leukemia.
`C=C1C(=O)O[C@H]2[C@H]1CC/C(CNC(=O)/C=C/c1ccc(Br)cc1)=C\CC[C@@]1(C)O[C@@H]21`: the GI50 in the assay with NCI/ADR-RES ovarian is 2590 nM; in the assay with HCC-2998 colon it was 1560 nM; in the assay on ACHN renal, 848 nM; in the assay on HCT-15 colon, 519 nM; with OVCAR-8 ovarian it was 1670 nM; in the assay with HT29 colon, 622 nM. In addition, the GI50 was 1740 nM in the assay on T-47D breast, 1240 nM in the assay on IGROV1 ovarian, 711 nM in the assay on NCI-H522 lung and 448 nM in the assay with RPMI-8226 leukemia. The TGI with NCI/ADR-RES ovarian is 10500 nM; in the assay on HCC-2998 colon it was 3000 nM; in the assay with ACHN renal, 2080 nM; in the assay on HCT-15 colon, 1880 nM; with OVCAR-8 ovarian, 5750 nM; in the assay on HT29 colon it was 2660 nM. Moreover, the TGI in the assay on T-47D breast was found to be 4730 nM; in the assay with IGROV1 ovarian it was 3050 nM; with NCI-H522 lung, 2300 nM; in the assay on RPMI-8226 leukemia it was 3260 nM.
Turning to `COC(=O)[C@@H](NC(=O)NC(=O)NC(=O)CI)C(C)C`, the GI50 was 25400 nM in the assay on NCI/ADR-RES ovarian; 13400 nM in the assay with HCC-2998 colon; 1810 nM in the assay with ACHN renal; 1660 nM with HCT-15 colon; 18800 nM in the assay with OVCAR-8 ovarian; 2010 nM in the assay on HT29 colon. The GI50 was 6000 nM with T-47D breast, 3870 nM in the assay with IGROV1 ovarian, 1690 nM in the assay on NCI-H522 lung and 4830 nM with RPMI-8226 leukemia. For the same compound, the TGI came to 73000 nM in the assay on NCI/ADR-RES ovarian; 27400 nM in the assay with HCC-2998 colon; 3470 nM with ACHN renal; 3160 nM in the assay with HCT-15 colon; 41400 nM with OVCAR-8 ovarian; 4030 nM in the assay on HT29 colon. Further, the TGI in the assay on T-47D breast is 34500 nM; with IGROV1 ovarian, 13900 nM; with NCI-H522 lung it was 3310 nM; with RPMI-8226 leukemia, 26100 nM.
